Measurements reported in patent publication US20200261391A1, “METHODS OF REDUCING THE RISK OF A CARDIOVASCULAR EVENT IN A STATIN-TREATED SUBJECT BY INCREASING SERUM AND PLASMA EPA AND DPA LEVELS” (Amarin Pharmaceuticals Ireland Limited, priority 2019, published 2020).
Values joined by “and” are separate entries in the source; they are usually repeats but may differ in a detail not shown here. Equal entries are not always repeated.

System: patients with elevated triglyceride levels on statin therapy with established cardiovascular disease or at high risk
Assay: REDUCE-IT trial: time to first occurrence of adjudicated cardiovascular endpoint events, AMR101 4 g daily vs placebo
Assay type: in vivo, human
From the text: The following study, also referred to as the REDUCE-IT clinical trial, was a large cardiovascular (CV) outcome trial designed to assess CV risk reduction benefit of AMR101 treatment (commercially known as VASCEPA®) versus placebo on the 5-point primary composite endpoint: CV death, non-fatal stroke, non-fatal myocardial infarction (MI), coronary revascularizations, or unstable angina requiring hospitalization.
A multi-center, prospective, randomized, double-blind, placebo-controlled, parallel-group study was performed to evaluate the effect of AMR101 (4 g per day) on cardiovascular health and mortality in hypertriglyceridemic patients with cardiovascular disease or at high risk for cardiovascular disease. The intended expanded indication of the study was treatment with AMR101 as an add-on to statin therapy to reduce the risk of cardiovascular events in patients with clinical cardiovascular disease or with multiple risk factors for cardiovascular disease.
The primary objective of this study was, in patients at LDL-C goal while on statin therapy, with established cardiovascular disease (CVD) or at high risk for CVD, and hypertriglyceridemia (e.g., fasting triglycerides(TG)≥200 mg/dL and <500 mg/dL), to evaluate the effect of AMR101 4 g daily on time from randomization to first occurrence of any component of the composite of the following major CV events: CV death; nonfatal MI; (including silent MI; electrocardiograms (ECGs) were performed annually for the detection of silent MIs); nonfatal stroke; coronary revascularization; and unstable angina determined to be caused by myocardial ischemia by invasive/non-invasive testing and requiring emergent hospitalization.
The key secondary objective of this study was to evaluate the effect of AMR101 4 g daily on the time from randomization to the first occurrence of the composite of following major CV events: CV death, nonfatal MI (including silent MI), and nonfatal stroke.
Other secondary objectives for this study were to evaluate the effect of therapy on time from randomization to the first occurrence of the following individual or composite endpoints: composite of CV death or nonfatal MI (including silent MI); fatal or nonfatal MI (including silent MI); non-elective coronary revascularization represented as the composite of emergent or urgent classifications; CV death; unstable angina determined to be caused by myocardial ischemia by invasive/non-invasive testing and requiring emergent hospitalization; fatal or nonfatal stroke; composite of total mortality, nonfatal MI (including silent MI), or nonfatal stroke; and total mortality.
Primary Efficacy Endpoint: The primary efficacy endpoint was time from randomization to the first occurrence of the composite of the following clinical events: CV death; nonfatal MI (including silent MI; ECGs were performed annually for the detection of silent MIs); nonfatal stroke; coronary revascularization; and unstable angina determined to be caused by myocardial ischemia by invasive/non-invasive testing and requiring emergent hospitalization. The first occurrence of any of these major adverse vascular events during the follow-up period of the study were included in the incidence.
Secondary Efficacy Endpoints: The key secondary efficacy endpoint was the time from randomization to the first occurrence of the composite of CV death, nonfatal MI (including silent MI), or nonfatal stroke. […]

[1] = adjudicated tertiary endpoint, listed as AMR101
[2] = adjudicated tertiary endpoint, listed as Icosapent Ethyl
[3] = vs placebo, median follow up 4.9 years
[4] = vs placebo, time to first event
[5] = vs placebo, time to first occurrence

## CC/C=C\C/C=C\C/C=C\C/C=C\C/C=C\CCCC(=O)OCC [icosapent ethyl, eicosapentaenoic acid ethyl ester]
Adjudicated tertiary endpoint
  Amputation for PVD, patients with event: (0.5%)
  Cardiac Arrest, patients with event: (0.5%)
  Cardiac Arrhythmias Requiring Hospitalization of ≥24 Hours, patients with event: (4.6%)
  Carotid Revascularization, patients with event: (0.8%)
  Coronary Revascularization, patients with event: (9.2%)
  Elective Revascularization, patients with event: (4.7%)
  Emergent Revascularization, patients with event: (1.0%)
  Ischemic Stroke, patients with event: (2.0%)
  New Heart Failure Requiring Hospitalization, patients with event: (3.4%)
  Primary Endpoint in Patients with Diabetes at Baseline, patients with event: (18.1%)
  Salvage Revascularization, patients with event: (0.0%)
  Sudden Cardiac Death, patients with event: 1.5%
  Transient Ischemic Attack, patients with event: (1.6%)
  Urgent Revascularization, patients with event: (4.4%)
[1]
  Hemorrhagic Stroke, patients with event: 0.3%
  New Heart Failure, patients with event: 4.1%
[2]
  Hemorrhagic Stroke, patients with event: (0.3%)
  New Heart Failure, patients with event: (4.1%)
  Sudden Cardiac Death, patients with event: (1.5%)
First occurrence of CV death, nonfatal MI or nonfatal stroke, median follow up 4.9 years
  key secondary composite endpoint, patients with event: 11.2%
First occurrence of CV death, nonfatal MI, nonfatal stroke, coronary revascularization or unstable angina, median follow up 4.9 years
  primary composite endpoint, patients with event: 17.2%
In vivo
  cardiovascular death, patients with event: 4.3%
  total mortality, patients with event: 6.7%
Median follow up 4.9 years
  key secondary composite endpoint, number needed to treat: 28
  primary composite endpoint, number needed to treat: 21
Patients with diabetes at baseline excluded
  New Onset of Diabetes, patients with event: (3.8%)
Vs placebo
  Amputation for PVD, HR: 1.04
  Cardiac Arrest, HR: 0.52
  Cardiac Arrhythmias Requiring Hospitalization of ≥24 Hours, HR: 1.21
  Carotid Revascularization, HR: 1.18
  Coronary Revascularization, HR: 0.66
  Elective Revascularization, HR: 0.68
  Emergent Revascularization, HR: 0.62
  Hemorrhagic Stroke, HR: 1.28
  Ischemic Stroke, HR: 0.64
  New Heart Failure Requiring Hospitalization, HR: 0.97
  New Heart Failure, HR: 0.95
  Primary Endpoint in Patients with Diabetes at Baseline, HR: 0.77
  Salvage Revascularization, HR: 0.00
  Sudden Cardiac Death, HR: 0.69
  Transient Ischemic Attack, HR: 1.32
  Urgent Revascularization, HR: 0.66
  cardiac arrest, reduction: 48%
  cardiovascular death, HR: 0.80
  cardiovascular death, relative risk reduction: 20%
  composite of cardiovascular death or nonfatal myocardial infarction, RRR: 25%
  composite of total mortality, nonfatal myocardial infarction, or nonfatal stroke, RRR: 23%
  fatal or nonfatal myocardial infarction, RRR: 31%
  fatal or nonfatal stroke, RRR: 28%
  hospitalization for unstable angina, RRR: 32%
  myocardial infarction, HR: 0.69
  primary endpoint risk reduction, post hoc analysis excluding patients with diarrhea: 25%
  stroke, HR: 0.72
  sudden cardiac death, reduction: 31%
  total mortality, HR: 0.87
  total mortality, relative risk reduction: 13%
  urgent or emergent revascularization, RRR: 35%
[3]
  key secondary composite endpoint, absolute risk reduction: 3.6%
  primary composite endpoint, absolute risk reduction: 4.8%
Vs placebo, patients with diabetes at baseline excluded
  New Onset of Diabetes, HR: 1.04
[4]
  key secondary composite endpoint, relative risk reduction: 26% and 26.5%
  primary composite endpoint, relative risk reduction: 25% and 24.8%
[5]
  key secondary composite endpoint, HR: 0.74
  primary composite endpoint, HR: 0.75
